From patent US20210205336A1, “Storage-stable ready-to-use formulations of Tigecycline” (RK Pharma Solutions LLC, priority 2019, published 2021)
Where “and” joins values, the source holds several entries; their conditions need not be identical. Equal entries are not always repeated.

Assay: Storage stability (purity and impurity profile) of ready-to-use tigecycline formulations at refrigeration, 2-8° C.
Format: physicochemical
Set-up: Tricyclic Impurity / Max. Unk Imp. / Oxo Impurity / Epimer Impurity / Total Impurity: unit not given here
Method: As used herein, and unless otherwise specified, the term “storage-stable” refers to any tigecycline-containing composition or formulation having sufficient physical and chemical stability to allow storage at a convenient temperature, such as between about 0° C. and about 50° C., for a commercially reasonable period of time. The phrase “physical stability” refers to maintenance of colour or colourless state, dissolved oxygen level, head space oxygen level and particulate matter and the phrase “chemical stability” relates to formation of drug-related impurities in terms of total impurities, single maximum individual impurity, or maximum individual unknown impurity. For pharmaceutical products, stability is required for commercially relevant times after manufacturing, such as for about 6, 12, 18, 24, or 36 months, during which time a product is kept in its original packaging under specified storage conditions. Solution A and Solution B were then further nitrogen purged for another 30 minutes and closed tightly after nitrogen flushing and covered with black cover. Solution A and solution B were stored in refrigerator (2-8° C.) for 02 hours. 100 mg tigecycline was charged in solution B followed by the addition of solution B to solution A while the solution A was kept at ice bath (e.g., about 0° C.). Now, the total 100 ml solution in the infusion bag was nitrogen purged for another 15 minutes and sealed after nitrogen flushing and stored at refrigerator (2-8° C.). […] Calcium chloride 60 mg and sodium bisulfite 2.5 mg were dissolved in 3 ml 5% dextrose for injection. The volume was made up to 5 ml with 5% dextrose solution. The solution was then nitrogen purged until dissolved oxygen reached <0.1 mg/L. 50 mg tigecycline was transferred into an amber color vial and then the 5 ml of the above solution was poured in the vial under nitrogen. The headspace of the vial was flushed through with nitrogen and packed. The vials were stored at refrigeration condition. Calcium chloride 60 mg and sodium bisulfite 2.5 mg were dissolved in 3 ml 5% dextrose. pH was adjusted to 5.5-6.0 pH range using 0.1 M meglumine solution, as required. The volume was made up to 5 ml with 5% dextrose solution. The solution was then nitrogen purged until dissolved oxygen reached <0.1 mg/L. 50 mg tigecycline was transferred into an amber colour vial and then the 5 ml of the above solution was poured in the vial under nitrogen. The headspace of the vial was flushed through with nitrogen and packed. The vials were stored at refrigeration condition. Calcium chloride 60 mg and sodium bisulfite 2.5 mg were dissolved in 3 ml 5% dextrose. pH was adjusted to 4.5-5.0 pH range using 0.1 M meglumine solution, as required. The volume was made up to 5 ml with 5% dextrose solution. The solution was then nitrogen purged until dissolved oxygen reached <0.1 mg/L. 50 mg tigecycline was transferred into an amber colour vial and then the 5 ml of the above solution was poured in the vial under nitrogen. The headspace of the vial was flushed through with nitrogen and packed. The vials were stored at refrigeration condition. Calcium chloride 60 mg and sodium bisulfite 2.5 mg were dissolved in 3 ml 0.9% NaCl Solution. The volume was made up to 5 ml with 0.9% NaCl Solution. […]

[1] = API (tigecycline before formulation)

- % Purity [1]: 99.22% and 99.2% and 99.18%
- Epimer Impurity [1]: 0.5 and 0.48 and 0.49
- Max. Unk Imp. [1]: 0.05 and 0.04
- Oxo Impurity [1]: 0.02
- Tricyclic Impurity [1]: 0.03 and 0.04 and 0.05
- Purity (API (tigecycline before formulation), Tables 4A-9A): 99.3
- Rel. Comp. B (API (tigecycline before formulation), in % (unit assumed)): 0.01 and 0.02
- Total Impurity (API column, Day 1 (tigecycline before formulation)): 0.82
Structure (SMILES): CN(C)c1cc(NC(=O)CNC(C)(C)C)c(O)c2c1C[C@H]1C[C@H]3[C@H](N(C)C)C(=O)/C(=C(\N)O)C(=O)[C@@]3(O)C(=O)C1=C2O [API, (4S,4aS,5aR,12aS)-9-[2-(tert-butylamino)acetamido]4,7-bis(dimethylamino)-1,4,4a,5,5a,6,11,12a-octahydro-3,10,12,12a-tetrahydroxy-1,11dioxo-2-naphthacenecarboxamide]
